Drawing on patent US9115092B2, “Substituted quinazoline and pyrido-pyrimidine derivatives” (Asana Biosciences, LLC, priority 2010, dated 2015), this text covers inhibition and IC50 for six compounds.

For one experiment, the system named is pS6RP in PC3 tumor. As to the kind of experiment: In vivo PK/PD study, PC3 tumor bearing mice, pS6RP. The note with it: Mus musculus. The method, then: PC3 cells were cultured at 37° C. in a 5% CO2 incubator using Hams F12 K medium. Ten million (10^7) cells were injected subcutaneously to the right flank region of athymic male mice (Harlan, age: 6-7 weeks, weight: about 20 g). Tumor bearing mice were randomized when the tumor volume reached about 250 mm^3 and three mice were used per each time point. Test compounds of formula (I) were formulated in 40% HPCD in 1×PBS, pH 7.4 and dosed orally at 50 mg/kg single dose (dose volume−10 mL/kg). Plasma and tumor samples were collected at 0 (vehicle control animals), 1, 4 and 24 hours post dosing. Blood was drawn (retro orbital) to a tube containing 0.2% EDTA for plasma collection. The tumor was excised from the mouse and immediately frozen in liquid nitrogen for PD analysis. Tumor and plasma drug concentrations were measured for PK analysis using LC-MS.
Snap frozen tumor samples were pulverized in a mortar (Belart) containing liquid nitrogen and tumor powder was stored at −80° C. until analysis. Pre coated ELISA kits (Cell Signaling Technology; pAKT(T308), CST#7135; pAKT(5473), CST#7134 and pS6RP, CST#7205) were used for PD analysis. Tumor powder was transferred to Eppendorf® tubes and lysis buffer (1 mL) was added to the powder. Protease and phosphatase inhibitors (SIGMA) and phenylmethanesulfonylfluoride (PMSF) were added to tumor powder and mixed by vortexing followed by sonication (15 sec). Samples were kept on an ice bath for 30 min. Supernatant was separated after centrifugation at 10,000 rpm for 20 min at 4° C. Supernatant was re-centrifuged and fresh supernatant was aliquoted to different tubes. Total protein was estimated using a BCA kit (Thermo Scientific) and 50 μg total protein was loaded to each well. ELISA analysis was carried out as per manufacturer's instructions. The detection for pAKT was based on chemiluminescence and pS6RP was based on absorbance. Qualitative assessments of the suppression of pAKT(T308), pAKT(5473), and pS6RP were also carried out by standard Western blot analyses.
For example, the compound of Example 1, at 50 mg/kg po, caused about 50% inhibition of pAkt(5473) at 1 and 4 hours and >50% inhibition of pS6RP at 1, 4 and 24 hours. Also, the compound of Example 2, at 50 mg/kg po, caused about 25-30% inhibition of pAkt(5473) at 4 and 24 hours and >50% inhibition of pS6RP at 1, 4 and 24 hours. The compound of example 51, at 30 mg/kg po, caused >50% inhibition of pS6RP at 2, 4 and 24 hours. Also, the compounds of examples 133, 146, 147, and 228, at 50 mg/kg po, each caused >50% inhibition of pS6RP at 3 and 8 hours.

A further experiment deals with PI3 kinase isoform β (Homo sapiens, UniProt P42338). Briefly: PI3 Kinase TR-FRET assay, isoform β. It counts as biochemical. The note with it: read-out: inhibition of PI3 kinase isoform β, IC50. The protocol:
(§1) The ability of compounds of the invention to inhibit PI3K activity was determined in a homogeneous TR-FRET assay using a PI3K assay kit (Millipore, USA; cat #33-016) according to manufacturer's instructions. PI3-Kinases (isoforms α, β, γ and δ) catalyze the phosphorylation of phosphatidylinositol, PIP2 to PIP3 in the presence of ATP and Mg^2+. The PIP3 product is detected by displacement of biotin-PIP3 from an energy transfer complex consisting of Europium labeled anti-GST monoclonal antibody, a GST-tagged PH domain, biotinylated PIP3 and Streptavidin-APC. Excitation of Europium in the complex results in an energy transfer to the APC and a fluorescence emission at 665 nm. The PIP3 product displaces biotin-PIP3 from the complex resulting in a loss of energy transfer and thus a decrease in signal.
(§2) To test for the ability of compounds to inhibit the activity of PI3Kα (wild-type), exemplary compounds of formula (I) were dissolved in DMSO and directly distributed into 384-well plates at a volume of 0.5 μL. 14.5 μL of P110/P85α/PIP2 mixture in buffer (obtained from the Millipore kit) containing MgCl2 (40 mM) and DTT (5 mM) was added to compound wells and incubated for 60 min at room temperature. P110/P85α was expressed in SF9 insect cells and purified nickel column extraction. Five ng of wild-type P110/P85α was used in the assay. The kinase reaction was started by the addition of ATP. The assay concentrations of both PIP2 and ATP were 10 μM. The reaction mixture was incubated for 30 min at room temperature and was terminated by the addition of stop mix and detection mix. Fluorescence was measured at 615 and 665 nm upon excitation at 340 nm in a Victor™ V5 fluorometer (Perkin Elmer, USA). The fluorescence emission ratio at 665 to 615 nm, proportional to the kinase activity, was plotted against the compound concentration to generate dose-response curves and IC50 values were determined using GraphPad Prism® 5 software.
The activity of PI3 kinase isoforms β, γ and δ were assayed in a similar manner to the assay protocol described above for PI3Kα, by substituting the appropriate p110/p85 isoform for the p110α/p85α. Compounds of formula (I) caused inhibition of PI3 kinase isoforms β, γ and δ as determined by these assays. For example, the compounds of examples 3, 51, 54, 111, 113, 115, and 253 each caused inhibition of PI3 kinase isoform β with IC50 values <50 nM. The compounds of examples 104, 133, 146 and 152 each caused inhibition of PI3 kinase isoform β with IC50 values <500 nM. The compounds of examples 3, 51, 54, 104, 111, 113, 115, 133, 253, and 152 each caused inhibition of PI3 kinase isoform γ with IC50 values <500 nM. […] The compounds of examples 2, 3, 51, 54, 111, 113, and 253 each caused inhibition of PI3 kinase isoform […] with IC50 values >1 μM.
In general terms: Time-resolved FRET reads energy transfer from a long-lived donor to a nearby acceptor.

The target of another experiment is PI3Kα mutation H1047R (Homo sapiens, UniProt P42336, H1047R). As to the kind of experiment: PI3 Kinase TR-FRET assay, PI3Kα mutation H1047R. It counts as biochemical. The note with it: read-out: inhibition of PI3Kα mutation H1047R, IC50. The protocol: as §1, §2
(§3) The activity of PI3Kα mutations H1047R and E545K were assayed in a similar manner to the assay protocol described above for PI3Kα (wild type). […]

A further experiment deals with PI3Kα mutation E545K (Homo sapiens, UniProt P42336, E545K). Briefly: PI3 Kinase TR-FRET assay, PI3Kα mutation E545K. The settings on record: read-out: inhibition of PI3Kα mutation E545K, IC50. The format is biochemical. The method, then: as §1, §2, §3
Setting [1] is: 50 mg/kg po single dose, at 1, 4 and 24 hours.

PI3Kα mutation H1047R, sequence (P42336 whole entry H1047R): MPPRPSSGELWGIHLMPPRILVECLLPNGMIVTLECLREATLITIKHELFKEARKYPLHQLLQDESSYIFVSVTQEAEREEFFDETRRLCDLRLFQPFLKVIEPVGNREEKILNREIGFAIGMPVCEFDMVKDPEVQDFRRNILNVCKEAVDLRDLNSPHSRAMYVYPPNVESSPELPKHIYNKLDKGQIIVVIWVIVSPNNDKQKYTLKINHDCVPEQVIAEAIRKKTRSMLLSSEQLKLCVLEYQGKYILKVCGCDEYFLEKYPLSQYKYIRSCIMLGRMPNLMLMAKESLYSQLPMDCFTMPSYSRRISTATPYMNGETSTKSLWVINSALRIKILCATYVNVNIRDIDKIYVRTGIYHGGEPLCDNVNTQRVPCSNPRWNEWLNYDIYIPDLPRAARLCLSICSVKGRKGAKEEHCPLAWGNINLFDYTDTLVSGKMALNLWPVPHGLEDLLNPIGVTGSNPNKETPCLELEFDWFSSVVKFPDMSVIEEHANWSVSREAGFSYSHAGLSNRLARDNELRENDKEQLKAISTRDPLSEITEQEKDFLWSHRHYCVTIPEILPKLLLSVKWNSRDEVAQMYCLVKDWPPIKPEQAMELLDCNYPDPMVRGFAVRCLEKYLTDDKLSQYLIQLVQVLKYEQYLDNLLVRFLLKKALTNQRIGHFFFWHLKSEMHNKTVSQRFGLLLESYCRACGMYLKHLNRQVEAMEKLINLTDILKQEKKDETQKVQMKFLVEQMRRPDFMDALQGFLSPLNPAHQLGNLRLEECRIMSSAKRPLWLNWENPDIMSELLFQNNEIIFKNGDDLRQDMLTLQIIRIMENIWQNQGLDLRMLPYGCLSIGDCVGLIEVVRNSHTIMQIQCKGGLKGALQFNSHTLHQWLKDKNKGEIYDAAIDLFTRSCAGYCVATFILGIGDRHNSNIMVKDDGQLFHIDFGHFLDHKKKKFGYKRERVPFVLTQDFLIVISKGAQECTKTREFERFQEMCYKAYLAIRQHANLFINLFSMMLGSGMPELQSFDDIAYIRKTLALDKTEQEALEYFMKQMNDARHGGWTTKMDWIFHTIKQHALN
PI3Kα mutation H1047R, sequence (P27986 whole entry partner): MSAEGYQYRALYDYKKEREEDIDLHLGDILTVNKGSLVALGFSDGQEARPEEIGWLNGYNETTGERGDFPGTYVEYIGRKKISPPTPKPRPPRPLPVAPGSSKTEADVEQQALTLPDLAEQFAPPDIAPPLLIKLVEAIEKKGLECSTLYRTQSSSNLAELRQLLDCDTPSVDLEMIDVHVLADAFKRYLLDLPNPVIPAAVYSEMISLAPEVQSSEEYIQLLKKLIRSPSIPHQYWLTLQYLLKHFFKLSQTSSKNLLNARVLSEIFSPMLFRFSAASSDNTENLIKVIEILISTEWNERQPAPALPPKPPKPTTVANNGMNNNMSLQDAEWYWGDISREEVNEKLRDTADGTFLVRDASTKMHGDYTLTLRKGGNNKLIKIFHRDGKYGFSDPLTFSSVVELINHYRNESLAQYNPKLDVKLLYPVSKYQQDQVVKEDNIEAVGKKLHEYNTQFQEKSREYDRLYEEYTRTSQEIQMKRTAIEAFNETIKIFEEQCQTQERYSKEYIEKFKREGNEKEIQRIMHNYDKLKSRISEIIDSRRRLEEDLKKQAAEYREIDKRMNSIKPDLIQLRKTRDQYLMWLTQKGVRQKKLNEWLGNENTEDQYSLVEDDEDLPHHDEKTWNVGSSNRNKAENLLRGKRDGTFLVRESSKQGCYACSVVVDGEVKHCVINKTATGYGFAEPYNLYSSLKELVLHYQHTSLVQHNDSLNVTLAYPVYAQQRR
PI3 kinase isoform β, sequence (P42338 whole entry, the tested form may be a part, canonical isoform): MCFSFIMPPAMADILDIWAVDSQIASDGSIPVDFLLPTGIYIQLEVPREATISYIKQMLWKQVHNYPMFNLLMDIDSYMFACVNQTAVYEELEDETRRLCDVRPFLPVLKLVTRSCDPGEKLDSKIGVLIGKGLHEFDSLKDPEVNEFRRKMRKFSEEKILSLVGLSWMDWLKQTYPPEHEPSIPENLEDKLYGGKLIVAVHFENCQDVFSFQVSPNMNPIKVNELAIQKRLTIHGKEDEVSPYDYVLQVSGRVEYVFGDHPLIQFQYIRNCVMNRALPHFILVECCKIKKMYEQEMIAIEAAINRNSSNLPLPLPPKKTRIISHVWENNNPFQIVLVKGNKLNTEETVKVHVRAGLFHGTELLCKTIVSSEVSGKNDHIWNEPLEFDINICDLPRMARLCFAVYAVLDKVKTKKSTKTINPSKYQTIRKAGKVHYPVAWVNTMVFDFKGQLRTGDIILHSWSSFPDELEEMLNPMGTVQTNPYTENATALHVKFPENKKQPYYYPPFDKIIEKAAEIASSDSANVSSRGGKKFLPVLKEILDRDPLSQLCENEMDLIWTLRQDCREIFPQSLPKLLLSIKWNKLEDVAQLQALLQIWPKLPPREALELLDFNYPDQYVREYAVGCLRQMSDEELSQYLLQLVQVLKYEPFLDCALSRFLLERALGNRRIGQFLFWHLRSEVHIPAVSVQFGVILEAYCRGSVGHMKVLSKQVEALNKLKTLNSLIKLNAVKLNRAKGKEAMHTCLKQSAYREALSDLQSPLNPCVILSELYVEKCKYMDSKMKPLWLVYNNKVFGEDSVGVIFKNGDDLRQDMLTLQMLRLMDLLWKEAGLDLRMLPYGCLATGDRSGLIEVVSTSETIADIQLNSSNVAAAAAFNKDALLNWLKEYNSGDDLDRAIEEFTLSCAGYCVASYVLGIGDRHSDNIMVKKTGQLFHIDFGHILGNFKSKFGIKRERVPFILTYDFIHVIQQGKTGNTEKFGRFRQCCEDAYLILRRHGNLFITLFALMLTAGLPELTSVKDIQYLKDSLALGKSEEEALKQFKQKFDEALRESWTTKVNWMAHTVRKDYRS
PI3 kinase isoform β, sequence (P27986 whole entry partner, the tested form may be a part, canonical isoform): as the sequence (P27986 whole entry partner) above
PI3Kα mutation E545K, sequence (P42336 whole entry E545K): as the sequence (P42336 whole entry H1047R) above, with E545K, R1047H counted along it
PI3Kα mutation E545K, sequence (P27986 whole entry partner): as the sequence (P27986 whole entry partner) above

As for `CN(C)C(=O)c1ccc(NC(=O)Nc2ccc(-c3nc(N4CCOCC4)c4ccc(-c5cncnc5)cc4n3)cc2)cc1` [Example 1, N,N-Dimethyl-4-(3-{4-[4-morpholin-4-yl-7-pyrimidin-5-yl-quinazolin-2-yl)-phenyl]-ureido}-benzamide], the inhibition at 50 mg/kg in the experiment with pS6RP in PC3 tumor (setting [1]) is above 50%.
Take `Cc1ccc(-c2ccc3c(N4CCOCC4)nc(-c4ccc(NC(=O)Nc5ccc(C(=O)N(C)C)cc5)cc4)nc3c2)o1` [Example 2, N,N-Dimethyl-4-(3-{4-[7-(5-methyl-furan-2-yl)-4-morpholin-4-yl-quinazolin-2-yl]-phenyl}-ureido)-benzamide]: the concentration for half-maximal inhibition (IC50) at PI3 kinase isoform β is below 1000 nM. Moreover, the inhibition at 50 mg/kg in the experiment with pS6RP in PC3 tumor (setting [1]) was above 50%.
In the case of `CN(C)C(=O)c1ccc(NC(=O)Nc2ccc(-c3nc(N4CCOCC4)c4ccc(-c5ccco5)cc4n3)cc2)cc1` [Example 51, 4-{3-[4-(7-furan-2-yl-4-morpholin-4-yl-quinazolin-2-yl)-phenyl]-ureido}-N,N-dimethyl-benzamide], the inhibition at 30 mg/kg with pS6RP in PC3 tumor (30 mg/kg po, at 2, 4 and 24 hours) was above 50%.
Turning to `CN(C)C(=O)c1ccc(NC(=O)Nc2ccc(-c3nc(N4CCOCC4)c4ccc(-c5cncnc5)cc4n3)cc2)c(F)c1` [Example 133, 3-fluoro-N,N-dimethyl-4-(3-(4-(4-morpholino-7-(pyrimidin-5-yl)quinazolin-2-yl)phenyl)ureido)-benzamide], the IC50 at PI3 kinase isoform β, on PI3Kα mutation H1047R and at PI3Kα mutation E545K was below 500 nM each time. For the same compound, the inhibition at 50 mg/kg with pS6RP in PC3 tumor (50 mg/kg po, at 3 and 8 hours) was above 50%.
On to `CN(C)C(=O)c1ccc(NC(=O)Nc2ccc(-c3nc(N4CCOCC4)c4ccc(-c5cccnc5F)cc4n3)cc2)c(F)c1` [Example 146, 3-fluoro-4-(3-(4-(7-(2-fluoropyridin-3-yl)-4-morpholino-quinazolin-2-yl)phenyl)ureido)-N,N-dimethyl-benzamide], for which the concentration for half-maximal inhibition (IC50) on PI3 kinase isoform β, at PI3Kα mutation H1047R and on PI3Kα mutation E545K was below 500 nM in each case. The inhibition at 50 mg/kg in the experiment with pS6RP in PC3 tumor (50 mg/kg po, at 3 and 8 hours) is above 50%.
On to `CN(C)C(=O)c1ccc(NC(=O)Nc2ccc(-c3nc(N4CCOCC4)c4ccc(-c5cccnc5)cc4n3)cc2)c(F)c1` [Example 152, 3-fluoro-N,N-dimethyl-4-(3-(4-(4-morpholino-7-(pyridin-3-yl)quinazolin-2-yl)phenyl)ureido)-benzamide], for which the IC50 at PI3 kinase isoform β, at PI3Kα mutation H1047R and at PI3Kα mutation E545K was below 500 nM throughout.

Broadly, the inhibition is the drop in the measured response relative to a control, in per cent. Read a low inhibition as a weak effect. Usually IC50 stands for the concentration at which inhibition is half-maximal.
